Source: PubChem BioAssay AID2060886 (Molecular Pharmacology Branch, DTP, NCI, 2025)

Test system: 653999-131-R-J2-PDC complex spheroids, growth inhibition
Assay: Anticancer human tumor 653999-131-R-J2-PDC patient-derived lung adenocarcinoma cell line growth inhibition [RAS]
Details: for IC50: curve of first compound; for viability, T/C: stronger effect = lower value
How it was run: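 Multi-cell-type spheroids: tumor cells plus HUVEC endothelial cells and mesenchymal stem cells. RAS-pathway inhibitors were combined with targeted agents, each dosed in half-log steps down from clinical Cmax, or from 10 microM when Cmax was unknown.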

[1] = second compound 0.000949 µM, first compound 0.0316 µM
[2] = second compound 0.000949 µM, first compound 0.1 µM
[3] = second compound 0.000949 µM, first compound 0.316 µM
[4] = second compound 0.000949 µM, first compound 1 µM
[5] = second compound 0.000949 µM, first compound 3.16 µM
[6] = second compound 0.000949 µM, first compound 10 µM
[7] = second compound 0.003 µM, first compound 0.0316 µM
[8] = second compound 0.003 µM, first compound 0.1 µM
[9] = second compound 0.003 µM, first compound 0.316 µM
[10] = second compound 0.003 µM, first compound 1 µM
[11] = second compound 0.003 µM, first compound 3.16 µM
[12] = second compound 0.003 µM, first compound 10 µM
[13] = second compound 0.00949 µM, first compound 0.0316 µM
[14] = second compound 0.00949 µM, first compound 0.1 µM
[15] = second compound 0.00949 µM, first compound 0.316 µM
[16] = second compound 0.00949 µM, first compound 1 µM
[17] = second compound 0.00949 µM, first compound 3.16 µM
[18] = second compound 0.00949 µM, first compound 10 µM
[19] = second compound 0.03 µM, first compound 0.0316 µM
[20] = second compound 0.03 µM, first compound 0.1 µM
[21] = second compound 0.03 µM, first compound 0.316 µM
[22] = second compound 0.03 µM, first compound 1 µM
[23] = second compound 0.03 µM, first compound 3.16 µM
[24] = second compound 0.03 µM, first compound 10 µM
[25] = second compound 0.0949 µM, first compound 0.0316 µM
[26] = second compound 0.0949 µM, first compound 0.1 µM
[27] = second compound 0.0949 µM, first compound 0.316 µM
[28] = second compound 0.0949 µM, first compound 1 µM
[29] = second compound 0.0949 µM, first compound 3.16 µM
[30] = second compound 0.0949 µM, first compound 10 µM
[31] = second compound 0.3 µM, first compound 0.0316 µM
[32] = second compound 0.3 µM, first compound 0.1 µM
[33] = second compound 0.3 µM, first compound 0.316 µM
[34] = second compound 0.3 µM, first compound 1 µM
[35] = second compound 0.3 µM, first compound 3.16 µM
[36] = second compound 0.3 µM, first compound 10 µM
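Further: spheroids exposed to the agents for seven days before the readout.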

## Cc1nc(N2CCC3(CC2)COC(C)C3N)c(CO)nc1Sc1ccnc(N)c1Cl (stereo unspecified) + CCn1c(-c2cc(N3CCN(C)CC3)cnc2C(C)OC)c2c3cc(ccc31)-c1csc(n1)CC(NC(=O)C1CC1C)C(=O)N1CCCC(N1)C(=O)OCC(C)(C)C2
Second compound 0.000949 µM
  IC50: > 10000 nM
Second compound 0.003 µM
  IC50: > 10000 nM
Second compound 0.00949 µM
  IC50: < 31.6 nM
Second compound 0.03 µM
  IC50: < 31.6 nM
Second compound 0.0949 µM
  IC50: < 31.6 nM
Second compound 0.3 µM
  IC50: < 31.6 nM
[1]
  viability, T/C: 80.8%
[2]
  viability, T/C: 91.1%
[3]
  viability, T/C: 76.1%
[4]
  viability, T/C: 80.9%
[5]
  viability, T/C: 64.2%
[6]
  viability, T/C: 76.8%
[7]
  viability, T/C: 60.9%
[8]
  viability, T/C: 47.7%
[9]
  viability, T/C: 64%
[10]
  viability, T/C: 54.8%
[11]
  viability, T/C: 47%
[12]
  viability, T/C: 54.1%
[13]
  viability, T/C: 43.1%
[14]
  viability, T/C: 34.9%
[15]
  viability, T/C: 37.4%
[16]
  viability, T/C: 41.1%
[17]
  viability, T/C: 24.6%
[18]
  viability, T/C: 29.7%
[19]
  viability, T/C: 36.7%
[20]
  viability, T/C: 30.2%
[21]
  viability, T/C: 21%
[22]
  viability, T/C: 19.1%
[23]
  viability, T/C: 17.3%
[24]
  viability, T/C: 15.9%
[25]
  viability, T/C: 21.4%
[26]
  viability, T/C: 27.6%
[27]
  viability, T/C: 14.4%
[28]
  viability, T/C: 14.2%
[29]
  viability, T/C: 11%
[30]
  viability, T/C: 11.9%
[31]
  viability, T/C: 23.4%
[32]
  viability, T/C: 18.5%
[33]
  viability, T/C: 20%
[34]
  viability, T/C: 12.7%
[35]
  viability, T/C: 10.1%
[36]
  viability, T/C: 7.03%

## NC1c2ccccc2OC12CCN(c1cnc3c(N4CCCc5ncccc54)n[nH]c3n1)CC2 (stereo unspecified) + CCn1c(-c2cc(N3CCN(C)CC3)cnc2C(C)OC)c2c3cc(ccc31)-c1csc(n1)CC(NC(=O)C1CC1C)C(=O)N1CCCC(N1)C(=O)OCC(C)(C)C2
Second compound 0.000949 µM
  IC50: > 10000 nM
Second compound 0.003 µM
  IC50: 65.7 nM
Second compound 0.00949 µM
  IC50: < 31.6 nM
Second compound 0.03 µM
  IC50: < 31.6 nM
Second compound 0.0949 µM
  IC50: < 31.6 nM
Second compound 0.3 µM
  IC50: < 31.6 nM
[1]
  viability, T/C: 67%
[2]
  viability, T/C: 60.7%
[3]
  viability, T/C: 55.2%
[4]
  viability, T/C: 59.3%
[5]
  viability, T/C: 65.6%
[6]
  viability, T/C: 63.4%
[7]
  viability, T/C: 60.7%
[8]
  viability, T/C: 40.6%
[9]
  viability, T/C: 40.3%
[10]
  viability, T/C: 49.5%
[11]
  viability, T/C: 41.3%
[12]
  viability, T/C: 42.1%
[13]
  viability, T/C: 40.9%
[14]
  viability, T/C: 34%
[15]
  viability, T/C: 28.5%
[16]
  viability, T/C: 33.9%
[17]
  viability, T/C: 24.7%
[18]
  viability, T/C: 24%
[19]
  viability, T/C: 24.1%
[20]
  viability, T/C: 20.3%
[21]
  viability, T/C: 12.9%
[22]
  viability, T/C: 9.46%
[23]
  viability, T/C: 12.2%
[24]
  viability, T/C: 11.1%
[25]
  viability, T/C: 17.6%
[26]
  viability, T/C: 17%
[27]
  viability, T/C: 12.7%
[28]
  viability, T/C: 7.56%
[29]
  viability, T/C: 5.76%
[30]
  viability, T/C: 6.14%
[31]
  viability, T/C: 16.5%
[32]
  viability, T/C: 10.2%
[33]
  viability, T/C: 7.36%
[34]
  viability, T/C: 6.93%
[35]
  viability, T/C: 7.17%
[36]
  viability, T/C: 4.26%

## Nc1ccn(C2OC(CO)C(O)C2(F)F)c(=O)n1 (stereo unspecified) + CCn1c(-c2cc(N3CCN(C)CC3)cnc2C(C)OC)c2c3cc(ccc31)-c1csc(n1)CC(NC(=O)C1CC1C)C(=O)N1CCCC(N1)C(=O)OCC(C)(C)C2
Second compound 0.000949 µM
  IC50: 14.1 nM
Second compound 0.003 µM
  IC50: 6.3 nM
Second compound 0.00949 µM
  IC50: < 3.16 nM
Second compound 0.03 µM
  IC50: < 3.16 nM
Second compound 0.0949 µM
  IC50: < 3.16 nM
Second compound 0.3 µM
  IC50: < 3.16 nM
Second compound 0.000949 µM, first compound 0.00316 µM
  viability, T/C: 67.6%
Second compound 0.000949 µM, first compound 0.01 µM
  viability, T/C: 57%
[1]
  viability, T/C: 34.4%
[2]
  viability, T/C: 34.4%
[3]
  viability, T/C: 25.9%
[4]
  viability, T/C: 23%
Second compound 0.003 µM, first compound 0.00316 µM
  viability, T/C: 59.1%
Second compound 0.003 µM, first compound 0.01 µM
  viability, T/C: 43.1%
[7]
  viability, T/C: 31.8%
[8]
  viability, T/C: 20.8%
[9]
  viability, T/C: 16.2%
[10]
  viability, T/C: 19.7%
Second compound 0.00949 µM, first compound 0.00316 µM
  viability, T/C: 45.6%
Second compound 0.00949 µM, first compound 0.01 µM
  viability, T/C: 30.9%
[13]
  viability, T/C: 25%
[14]
  viability, T/C: 19.3%
[15]
  viability, T/C: 18.2%
[16]
  viability, T/C: 15.1%
Second compound 0.03 µM, first compound 0.00316 µM
  viability, T/C: 37.3%
Second compound 0.03 µM, first compound 0.01 µM
  viability, T/C: 29.4%
[19]
  viability, T/C: 20.3%
[20]
  viability, T/C: 14.7%
[21]
  viability, T/C: 12.8%
[22]
  viability, T/C: 11.6%
Second compound 0.0949 µM, first compound 0.00316 µM
  viability, T/C: 26.7%
Second compound 0.0949 µM, first compound 0.01 µM
  viability, T/C: 30.3%
[25]
  viability, T/C: 18.8%
[26]
  viability, T/C: 16.7%
[27]
  viability, T/C: 11.7%
[28]
  viability, T/C: 11%
Second compound 0.3 µM, first compound 0.00316 µM
  viability, T/C: 25.9%
Second compound 0.3 µM, first compound 0.01 µM
  viability, T/C: 24.5%
[31]
  viability, T/C: 20.7%
[32]
  viability, T/C: 18.4%
[33]
  viability, T/C: 13.9%
[34]
  viability, T/C: 12.8%
